Measurements published in patent US4399132A, “7-Beta-[alpha-syn-methoxyimino-alpha-(2-aminothiazol-4-yl)-aceta mido]-3-[(1,2,3-thiadiazol-5-ylthio)methyl]-3-cephem-4-carboxylic acid and C1 -C6 alkyl derivatives thereof” (American Cyanamid Company, priority 1981, dated 1983).
In brackets after ≈: the same amount, converted by molar mass. Like-named read-outs stand apart in the source and are kept apart here.

Tests used:
Test in all cases: Mueller-Hinton agar dilution method (MIC)
Assay type in all cases: cell-based
[1] = test system: Klebsiella pneumoniae; details: for MIC: Klebsiella pneumoniae
[2] = test system: Salmonella (arizona); details: read-out: Minimal Inhibitory Concentration
[3] = test system: Staphylococcus aureus
[4] = test system: Enterobacter cloacae
[5] = test system: Enterobacter aerogenes; details: Klebsiella aerogenes
[6] = test system: Proteus morganii; details: Morganella morganii, read-out: Minimal Inhibitory Concentration
[7] = test system: Pseudomonas aeruginosa
[8] = test system: Serratia marcescens; details: read-out: Minimal Inhibitory Concentration
[9] = test system: Enterococcus sp.; details: for MIC: Enterococcus
[10] = test system: Escherichia coli; details: read-out: Minimal Inhibitory Concentration
[11] = test system: Proteus rettgeri; details: Providencia rettgeri, read-out: Minimal Inhibitory Concentration
[12] = test system: Acinetobacter sp.; details: read-out: Minimal Inhibitory Concentration
[13] = test system: Micrococcus luteus; details: read-out: Minimal Inhibitory Concentration
Source text: (§1) The results appear in Tables I, II, and III.

[14] = test system: Salmonella sp.; details: strain SSC-79-57, Table III, read-out: Minimal Inhibitory Concentration
Source text: as §1

[15] = test system: Citrobacter sp.; details: read-out: Minimal Inhibitory Concentration
[16] = test system: Providencia stuartti; details: read-out: Minimal Inhibitory Concentration
[17] = test system: Klebsiella oxytoca; details: read-out: Minimal Inhibitory Concentration
[18] = ATCC25922, strain ATCC 25922, Table III

Q: Which MIC ([1]; strain STFD-79-6, Table III, read-out: Minimal Inhibitory Concentration) does the source give for `CO/N=C(\C(=O)N[C@@H]1C(=O)N2C(C(=O)O)=C(CSc3snnc3C)CS[C@H]12)c1csc(N)n1` [Compound Ib(i), 7-β-[α-syn-methoxyimino-α-(2-aminothiazol-4-yl)acetamido]-3-[(1,2,3-thiadiazol-4-methyl-5-ylthio)methyl]-3-cephem-4-carboxylic acid] here?
A: ≤ 0.03 µg/mL

Q: What about the “Minimal Inhibitory Concentration” value ([1]; strain AD, Table III) of the same compound?
A: ≤ .03 µg/mL

Q: What about the “Minimal Inhibitory Concentration” value ([1]; strain SSC-78-1, Table III) of the same compound?
A: ≤ .03 µg/mL

Q: And the MIC ([2]; strain QHC-77-3, Table III)?
A: 0.06 µg/mL (≈ 0.114 µM)

Q: What about the MIC ([3]; strain FU-79-19-2, Table III, read-out: Minimal Inhibitory Concentration) of the same compound?
A: 0.5 µg/mL (≈ 0.948 µM)

Q: What about the MIC ([3]; strain SSC-79-18, Table III, read-out: Minimal Inhibitory Concentration) of the same compound?
A: 0.25 µg/mL (≈ 0.474 µM)

Q: And the MIC ([3]; strain SSC-80-15, Table III, read-out: Minimal Inhibitory Concentration)?
A: 1 µg/mL (≈ 1.9 µM)

Q: What about the MIC ([3]; strain Smith, Table III, read-out: Minimal Inhibitory Concentration) of the same compound?
A: 0.25 µg/mL (≈ 0.474 µM)

Q: And the MIC ([4]; strain K-79-16, Table III, read-out: Minimal Inhibitory Concentration)?
A: 0.25 µg/mL (≈ 0.474 µM)

Q: And the MIC ([5]; strain STFD-79-14, Table III, read-out: Minimal Inhibitory Concentration)?
A: 0.12 µg/mL (≈ 0.227 µM)

Q: What about the MIC ([6]; strain K-79-25, Table III) of the same compound?
A: ≤ 0.03 µg/mL

Q: What about the MIC ([7]; ATCC27853, strain ATCC 27853, Table III, read-out: Minimal Inhibitory Concentration) of the same compound?
A: 64 µg/mL (≈ 121 µM)

Q: What about the MIC ([7]; strain 12-4-4, Table III, read-out: Minimal Inhibitory Concentration) of the same compound?
A: 64 µg/mL (≈ 121 µM)

Q: And the MIC ([7]; strain SSC-78-13, Table III, read-out: Minimal Inhibitory Concentration)?
A: 64 µg/mL (≈ 121 µM)

Q: And the MIC ([8]; strain QHC-77-2, Table III)?
A: 2 µg/mL (≈ 3.79 µM)

Q: What about the MIC ([8]; strain TUL-78-15, Table III) of the same compound?
A: 2 µg/mL (≈ 3.79 µM)

Q: What about the MIC ([9]; strain OSU-75-1, Table III, read-out: Minimal Inhibitory Concentration) of the same compound?
A: 8 µg/mL (≈ 15.2 µM)

Q: And the “Minimal Inhibitory Concentration” value ([9]; strain SM-77-15, Table III)?
A: 8 µg/mL

Q: And the MIC [10, 18]?
A: ≤ 0.03 µg/mL

Q: And the MIC ([10]; strain #311, Table III)?
A: 0.06 µg/mL (≈ 0.114 µM)

Q: What about the MIC ([10]; strain ESS 22-31, Table III) of the same compound?
A: ≤ 0.03 µg/mL

Q: And the MIC ([10]; strain STFD-79-20, Table III)?
A: ≤ 0.03 µg/mL

Q: What about the MIC ([11]; strain N-76-1, Table III) of the same compound?
A: ≤ 0.03 µg/mL

Q: And the MIC ([12]; strain K-77-1, Table III)?
A: 4 µg/mL (≈ 7.58 µM)

Q: What about the MIC ([12]; strain STFD-79-17, Table III) of the same compound?
A: 32 µg/mL (≈ 60.6 µM)

Q: What about the MIC ([13]; strain PCI 1001, Table III) of the same compound?
A: ≤ 0.03 µg/mL

Q: What about the MIC [14] of the same compound?
A: 1 µg/mL (≈ 1.9 µM)

Q: `CC(=O)OCC1=C(C(=O)O)N2C(=O)[C@@H](NC(=O)Cc3cccs3)[C@H]2SC1` [II] was tested. Which MIC ([1]; read-out: Minimal Inhibitory Concentration, strain AD, Table III) did it give?
A: 0.03 µg/mL (≈ 0.0757 µM)

Q: And the MIC ([1]; read-out: Minimal Inhibitory Concentration, strain SSC-78-1, Table I)?
A: 1 µg/mL (≈ 2.52 µM)

Q: And the MIC ([1]; read-out: Minimal Inhibitory Concentration, strain SSC-78-1, Table III)?
A: 1 µg/mL (≈ 2.52 µM)

Q: And the MIC ([1]; read-out: Minimal Inhibitory Concentration, strain STFD-79-6, Table III)?
A: 0.5 µg/mL (≈ 1.26 µM)

Q: What about the MIC ([1]; read-out: Minimal Inhibitory Concentration, strain STFD-79-16, Table I) of the same compound?
A: 1 µg/mL (≈ 2.52 µM)

Q: And the MIC [2]?
A: 2 µg/mL (≈ 5.04 µM)

Q: What about the MIC [15] of the same compound?
A: 1 µg/mL (≈ 2.52 µM)

Q: And the MIC ([3]; read-out: Minimal Inhibitory Concentration, strain FU-79-19-2, Table I)?
A: 0.5 µg/mL (≈ 1.26 µM)

Q: And the MIC ([3]; read-out: Minimal Inhibitory Concentration, strain FU-79-19-2, Table III)?
A: 0.12 µg/mL (≈ 0.303 µM)

Q: And the MIC ([3]; read-out: Minimal Inhibitory Concentration, strain SSC-79-18, Table I)?
A: 0.25 µg/mL (≈ 0.631 µM)

Q: What about the MIC ([3]; read-out: Minimal Inhibitory Concentration, strain SSC-79-18, Table III) of the same compound?
A: 0.12 µg/mL (≈ 0.303 µM)

Q: What about the MIC ([3]; read-out: Minimal Inhibitory Concentration, strain SSC-80-15, Table I) of the same compound?
A: 0.5 µg/mL (≈ 1.26 µM)

Q: And the MIC ([3]; read-out: Minimal Inhibitory Concentration, strain SSC-80-15, Table III)?
A: 0.5 µg/mL (≈ 1.26 µM)

Q: What about the MIC ([3]; read-out: Minimal Inhibitory Concentration, strain Smith, Table I) of the same compound?
A: 0.12 µg/mL (≈ 0.303 µM)

Q: And the MIC ([3]; read-out: Minimal Inhibitory Concentration, strain Smith, Table III)?
A: 0.03 µg/mL (≈ 0.0757 µM)

Q: And the MIC [16]?
A: > 128 µg/mL

Q: And the MIC ([4]; read-out: Minimal Inhibitory Concentration, strain K-79-16, Table I)?
A: > 128 µg/mL

Q: What about the MIC ([4]; read-out: Minimal Inhibitory Concentration, strain K-79-16, Table III) of the same compound?
A: > 128 µg/mL

Q: What about the MIC ([4]; read-out: Minimal Inhibitory Concentration, strain K-81-46, Table I) of the same compound?
A: 64 µg/mL (≈ 161 µM)

Q: What about the MIC ([5]; read-out: Minimal Inhibitory Concentration, strain STFD-79-14, Table I) of the same compound?
A: 128 µg/mL (≈ 323 µM)

Q: And the MIC ([5]; read-out: Minimal Inhibitory Concentration, strain STFD-79-14, Table III)?
A: > 128 µg/mL

Q: And the MIC [6]?
A: > 128 µg/mL

Q: What about the MIC [17] of the same compound?
A: 2 µg/mL (≈ 5.04 µM)

Q: What about the MIC ([7]; ATCC27853, read-out: Minimal Inhibitory Concentration) of the same compound?
A: > 128 µg/mL

Q: What about the MIC ([7]; read-out: Minimal Inhibitory Concentration) of the same compound?
A: > 128 µg/mL

Q: And the MIC [8]?
A: > 128 µg/mL

Q: What about the MIC ([9]; read-out: Minimal Inhibitory Concentration, strain OSU-75-1, Table I) of the same compound?
A: 32 µg/mL (≈ 80.7 µM)

Q: And the MIC ([9]; read-out: Minimal Inhibitory Concentration, strain OSU-75-1, Table III)?
A: 16 µg/mL (≈ 40.4 µM)

Q: What about the MIC ([9]; read-out: Minimal Inhibitory Concentration, strain SM-77-15, Table I) of the same compound?
A: 32 µg/mL (≈ 80.7 µM)

Q: And the MIC ([9]; read-out: Minimal Inhibitory Concentration, strain SM-77-15, Table III)?
A: 16 µg/mL (≈ 40.4 µM)

Q: And the MIC [10, 18]?
A: 2 µg/mL (≈ 5.04 µM)

Q: And the MIC ([10]; strain #311, Table I)?
A: 4 µg/mL (≈ 10.1 µM)

Q: What about the MIC ([10]; strain #311, Table III) of the same compound?
A: 4 µg/mL (≈ 10.1 µM)

Q: And the MIC ([10]; strain ESS 22-31, Table III)?
A: ≤ 0.03 µg/mL

Q: What about the MIC ([10]; strain K-81-14, Table I) of the same compound?
A: 64 µg/mL (≈ 161 µM)

Q: And the MIC ([10]; strain STFD-79-20, Table I)?
A: 4 µg/mL (≈ 10.1 µM)

Q: What about the MIC ([10]; strain STFD-79-20, Table III) of the same compound?
A: 2 µg/mL (≈ 5.04 µM)

Q: What about the MIC [11] of the same compound?
A: > 128 µg/mL

Q: What about the MIC [12] of the same compound?
A: > 128 µg/mL

Q: What about the MIC [13] of the same compound?
A: 0.03 µg/mL (≈ 0.0757 µM)

Q: What about the MIC [14] of the same compound?
A: 64 µg/mL (≈ 161 µM)
